Experimental data as given in ChEMBL document CHEMBL1201862, “PubChem BioAssay data set” (2004).
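Assay format: 96-well plates, 48-hour exposure. Abbreviation: GI50, concentration required for 50% inhibition of growth.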 Active and inactive are the calls of the source. Cut-off read from the data, not from the text of the source: active = GI50 up to about 1.1 µM and inactive = higher.

Columns and labels:
Test in all cases: DTP human tumour cell line panel, 48 h
KM12 = tested on: KM12
NCI-H522 = tested on: NCI-H522
T47D = tested on: T47D
SK-MEL-28 = tested on: SK-MEL-28
K562 = tested on: K562
LOX IMVI = tested on: LOX IMVI
Malme-3M = tested on: Malme-3M
Hs-578T = tested on: Hs-578T
NCI-H226 = tested on: NCI-H226
UACC-257 = tested on: UACC-257
UACC-62 = tested on: UACC-62
NCI/ADR-RES = tested on: NCI/ADR-RES
MDA-MB-231 = tested on: MDA-MB-231
HT-29 = tested on: HT-29
MDA-MB-435 = tested on: MDA-MB-435
SW-620 = tested on: SW-620
SF-539 = tested on: SF-539
BT-549 = tested on: BT-549
NCI-H23 = tested on: NCI-H23
CCRF-CEM = tested on: CCRF-CEM
OVCAR-5 = tested on: OVCAR-5
SK-OV-3 = tested on: SK-OV-3
A549 = tested on: A549
CAKI-1 = tested on: CAKI-1
HOP-92 = tested on: HOP-92
NCI-H460 = tested on: NCI-H460
HCT-15 = tested on: HCT-15
OVCAR-3 = tested on: OVCAR-3
HCT-116 = tested on: HCT-116
SR = tested on: SR
MDA-N = tested on: MDA-N
MCF7 = tested on: MCF7
OVCAR-8 = tested on: OVCAR-8
SF-295 = tested on: SF-295
EKVX = tested on: EKVX
RPMI-8226 = tested on: RPMI-8226
ACHN = tested on: ACHN
HL-60 = tested on: HL-60
PC-3 = tested on: PC-3
A498 = tested on: A498
COLO 205 = tested on: COLO 205
IGROV-1 = tested on: IGROV-1
SN12C = tested on: SN12C
SK-MEL-5 = tested on: SK-MEL-5
TK-10 = tested on: TK-10
DU-145 = tested on: DU-145
U-251 = tested on: U-251
UO-31 = tested on: UO-31
SF-268 = tested on: SF-268
OVCAR-4 = tested on: OVCAR-4
786-0 = tested on: 786-0
MOLT-4 = tested on: MOLT-4
HCC 2998 = tested on: HCC 2998
M14 = tested on: M14
SK-MEL-2 = tested on: SK-MEL-2
SNB-19 = tested on: SNB-19
RXF 393 = tested on: RXF 393
SNB-75 = tested on: SNB-75
HOP-62 = tested on: HOP-62

With CC(=O)OCCn1c(Cc2ccc([N+](=O)[O-])cc2)nn(C(C)=O)c1=O the GI50 (KM12) was > 100 µM (inactive), the GI50 (NCI-H522) was > 100 µM (inactive) and the GI50 (T47D) was > 100 µM (inactive). The GI50 (SK-MEL-28) was > 100 µM (inactive), the GI50 (K562) was > 100 µM (inactive) and the GI50 (LOX IMVI) was > 100 µM (inactive). The GI50 (Malme-3M) was > 100 µM (inactive), the GI50 (Hs-578T) was > 100 µM (inactive) and the GI50 (NCI-H226) was > 100 µM (inactive). The GI50 (UACC-257) was > 100 µM (inactive), the GI50 (UACC-62) was > 100 µM (inactive) and the GI50 (NCI/ADR-RES) was > 100 µM (inactive). For the same molecule, the GI50 (MDA-MB-231) was > 100 µM (inactive), the GI50 (HT-29) was > 100 µM (inactive) and the GI50 (MDA-MB-435) was > 100 µM (inactive). For the same molecule, the GI50 (SW-620) was > 100 µM (inactive), the GI50 (SF-539) was > 100 µM (inactive) and the GI50 (BT-549) was > 100 µM (inactive). For the same molecule, the GI50 (NCI-H23) was > 100 µM (inactive), the GI50 (CCRF-CEM) was > 100 µM (inactive) and the GI50 (OVCAR-5) was > 100 µM (inactive). The GI50 (SK-OV-3) was > 100 µM (inactive), the GI50 (A549) was > 100 µM (inactive) and the GI50 (CAKI-1) was > 100 µM (inactive). For the same molecule, the GI50 (HOP-92) was > 100 µM (inactive), the GI50 (NCI-H460) was > 100 µM (inactive) and the GI50 (HCT-15) was greater than 100 µM. The GI50 (OVCAR-3) was > 100 µM (inactive), the GI50 (HCT-116) was > 100 µM (inactive) and the GI50 (SR) was > 100 µM (inactive). The GI50 (MDA-N) was > 100 µM (inactive), the GI50 (MCF7) was > 100 µM (inactive) and the GI50 (OVCAR-8) was > 100 µM (inactive). The GI50 (SF-295) was > 100 µM (inactive), the GI50 (EKVX) was > 100 µM (inactive) and the GI50 (RPMI-8226) was > 100 µM (inactive). The GI50 (ACHN) was > 100 µM (inactive), the GI50 (HL-60) was > 100 µM (inactive) and the GI50 (PC-3) was > 100 µM (inactive). For the same molecule, the GI50 (A498) was > 100 µM (inactive), the GI50 (COLO 205) was > 100 µM (inactive) and the GI50 (IGROV-1) was > 100 µM (inactive). The GI50 (SN12C) was > 100 µM (inactive), the GI50 (SK-MEL-5) was > 100 µM (inactive) and the GI50 (TK-10) was > 100 µM (inactive). The GI50 (DU-145) was > 100 µM (inactive), the GI50 (U-251) was > 100 µM (inactive) and the GI50 (UO-31) was > 100 µM (inactive). For the same molecule, the GI50 (SF-268) was > 100 µM (inactive), the GI50 (OVCAR-4) was > 100 µM (inactive) and the GI50 (786-0) was > 100 µM (inactive). For the same molecule, the GI50 (MOLT-4) was > 100 µM (inactive), the GI50 (HCC 2998) was > 100 µM (inactive) and the GI50 (M14) was > 100 µM (inactive). The GI50 (SK-MEL-2) was > 100 µM (inactive) and the GI50 (SNB-19) was > 100 µM (inactive).

With CC(C)=CCN1c2ccccc2[C@@]2(CC=C(C)C)CCN(C)[C@@H]12 [(+)-DEBROMOFLUSTRAMINE B] the GI50 (KM12) was 24.5 µM (inactive), the GI50 (NCI-H522) was 18.6 µM (inactive) and the GI50 (T47D) was 20.7 µM (inactive). For the same molecule, the GI50 (SK-MEL-28) was 35.5 µM (inactive), the GI50 (RXF 393) was 28.5 µM (inactive) and the GI50 (K562) was 19.6 µM (inactive). For the same molecule, the GI50 (LOX IMVI) was 15.1 µM (inactive), the GI50 (Malme-3M) was 17.7 µM (inactive) and the GI50 (Hs-578T) was 22 µM (inactive). The GI50 (SNB-75) was 26.1 µM (inactive), the GI50 (NCI-H226) was 44.2 µM (inactive) and the GI50 (UACC-257) was > 10 µM (inactive). The GI50 (UACC-62) was 15.7 µM (inactive), the GI50 (NCI/ADR-RES) was 18.3 µM (inactive) and the GI50 (MDA-MB-231) was 21.4 µM (inactive). The GI50 (HT-29) was 19.5 µM (inactive), the GI50 (MDA-MB-435) was 21.1 µM (inactive) and the GI50 (SW-620) was 26.7 µM (inactive). The GI50 (SF-539) was 24.3 µM (inactive), the GI50 (BT-549) was 21.9 µM (inactive) and the GI50 (NCI-H23) was 40.5 µM (inactive). The GI50 (CCRF-CEM) was 34.2 µM (inactive), the GI50 (OVCAR-5) was > 100 µM (inactive) and the GI50 (SK-OV-3) was 24.4 µM (inactive). The GI50 (A549) was 36.1 µM (inactive), the GI50 (CAKI-1) was 26.8 µM (inactive) and the GI50 (HOP-92) was 32.7 µM (inactive). The GI50 (NCI-H460) was 14.8 µM (inactive), the GI50 (HCT-15) was 25.6 µM and the GI50 (OVCAR-3) was 18.1 µM (inactive). For the same molecule, the GI50 (HCT-116) was 23.6 µM (inactive), the GI50 (SR) was 33.4 µM (inactive) and the GI50 (MDA-N) was 26.5 µM (inactive). For the same molecule, the GI50 (MCF7) was 17.3 µM (inactive), the GI50 (OVCAR-8) was 28.2 µM (inactive) and the GI50 (SF-295) was 21 µM (inactive). For the same molecule, the GI50 (EKVX) was 21.2 µM (inactive), the GI50 (RPMI-8226) was 21.6 µM (inactive) and the GI50 (ACHN) was 32.5 µM (inactive). For the same molecule, the GI50 (HL-60) was 16.1 µM (inactive), the GI50 (PC-3) was 27 µM (inactive) and the GI50 (COLO 205) was 13.9 µM (inactive). The GI50 (IGROV-1) was 21.6 µM (inactive), the GI50 (SN12C) was 27.4 µM (inactive) and the GI50 (SK-MEL-5) was 17.6 µM (inactive). For the same molecule, the GI50 (TK-10) was 35.9 µM (inactive), the GI50 (DU-145) was 45.2 µM (inactive) and the GI50 (U-251) was 18.2 µM (inactive). For the same molecule, the GI50 (UO-31) was 14.8 µM (inactive), the GI50 (SF-268) was 46.3 µM (inactive) and the GI50 (OVCAR-4) was 35.6 µM (inactive). For the same molecule, the GI50 (786-0) was 19.2 µM (inactive), the GI50 (HOP-62) was 19.2 µM (inactive) and the GI50 (MOLT-4) was 25.6 µM (inactive). For the same molecule, the GI50 (HCC 2998) was 13.7 µM (inactive), the GI50 (SK-MEL-2) was 14 µM (inactive) and the GI50 (SNB-19) was 22.3 µM (inactive).

With CNC1C(O)C(OC2C(N)CC(N)C(OC3OC(CN)=CCC3N)C2O)OCC1(C)O (centres undefined) the GI50 (KM12) was > 100 µM (inactive), the GI50 (NCI-H522) was > 100 µM (inactive) and the GI50 (T47D) was > 100 µM (inactive). The GI50 (SK-MEL-28) was > 100 µM (inactive), the GI50 (K562) was > 100 µM (inactive) and the GI50 (LOX IMVI) was > 100 µM (inactive). The GI50 (Malme-3M) was > 100 µM (inactive), the GI50 (Hs-578T) was > 100 µM (inactive) and the GI50 (SNB-75) was > 100 µM (inactive). The GI50 (NCI-H226) was > 100 µM (inactive), the GI50 (UACC-257) was > 100 µM (inactive) and the GI50 (UACC-62) was > 100 µM (inactive). For the same molecule, the GI50 (NCI/ADR-RES) was > 100 µM (inactive), the GI50 (MDA-MB-231) was > 100 µM (inactive) and the GI50 (HT-29) was > 100 µM (inactive). The GI50 (MDA-MB-435) was > 100 µM (inactive), the GI50 (SW-620) was > 100 µM (inactive) and the GI50 (SF-539) was > 100 µM (inactive). For the same molecule, the GI50 (BT-549) was > 100 µM (inactive), the GI50 (NCI-H23) was > 100 µM (inactive) and the GI50 (CCRF-CEM) was > 100 µM (inactive). The GI50 (OVCAR-5) was > 100 µM (inactive), the GI50 (SK-OV-3) was > 100 µM (inactive) and the GI50 (A549) was > 100 µM (inactive). The GI50 (CAKI-1) was > 100 µM (inactive), the GI50 (HOP-92) was > 100 µM (inactive) and the GI50 (NCI-H460) was > 100 µM (inactive). The GI50 (HCT-15) was greater than 100 µM, the GI50 (OVCAR-3) was > 100 µM (inactive) and the GI50 (HCT-116) was > 100 µM (inactive). The GI50 (SR) was > 100 µM (inactive), the GI50 (MDA-N) was > 100 µM (inactive) and the GI50 (MCF7) was > 100 µM (inactive). The GI50 (OVCAR-8) was > 100 µM (inactive), the GI50 (SF-295) was > 100 µM (inactive) and the GI50 (EKVX) was > 100 µM (inactive). The GI50 (RPMI-8226) was > 100 µM (inactive), the GI50 (ACHN) was > 100 µM (inactive) and the GI50 (HL-60) was > 100 µM (inactive). For the same molecule, the GI50 (PC-3) was > 100 µM (inactive), the GI50 (A498) was > 100 µM (inactive) and the GI50 (COLO 205) was > 100 µM (inactive). The GI50 (IGROV-1) was > 100 µM (inactive), the GI50 (SN12C) was > 100 µM (inactive) and the GI50 (SK-MEL-5) was > 100 µM (inactive). For the same molecule, the GI50 (DU-145) was > 100 µM (inactive), the GI50 (U-251) was > 100 µM (inactive) and the GI50 (UO-31) was > 100 µM (inactive). The GI50 (SF-268) was > 100 µM (inactive), the GI50 (786-0) was > 100 µM (inactive) and the GI50 (HOP-62) was > 100 µM (inactive). For the same molecule, the GI50 (MOLT-4) was > 100 µM (inactive), the GI50 (HCC 2998) was > 100 µM (inactive) and the GI50 (M14) was > 100 µM (inactive). The GI50 (SK-MEL-2) was > 100 µM (inactive) and the GI50 (SNB-19) was > 100 µM (inactive).
